≈ marks a conversion by molar mass, not a printed value.
Assays:
[1] = tested on: Trichophyton mentagrophytes ATCC 10270; assay: Antifungal in vitro MIC, Trichophyton mentagrophytes; assay type: cell-based; conditions: percent inhibition >= 80%
[2] = tested on: Microsporum canis ATCC 10214; assay: Antifungal in vitro MIC, Microsporum canis; assay type: cell-based; conditions: percent inhibition >= 80%
[3] = tested on: Candida glabrata ATCC 15126; assay: Antifungal in vitro MIC, Candida glabrata; assay type: cell-based; conditions: percent inhibition >= 80%
[4] = tested on: Aspergillus fumigatus ATCC 204305; assay: Antifungal in vitro MIC, Aspergillus fumigatus; assay type: cell-based; conditions: percent inhibition >= 80%
[5] = tested on: Candida albicans ATCC 90028; assay: Antifungal in vitro MIC, Candida albicans; assay type: cell-based; conditions: percent inhibition >= 80%
[6] = tested on: Candida parapsilosis ATCC 22019; assay: Antifungal in vitro MIC, Candida parapsilosis; assay type: cell-based; conditions: percent inhibition >= 80%
S. aureus ATCC 29213 = assay: MIC determination, S. aureus ATCC 29213; assay type: cell-based, Staphylococcus aureus; conditions: Table 1
E. faecalis ATCC 29212 = assay: MIC determination, E. faecalis ATCC 29212; assay type: cell-based, Enterococcus faecalis; conditions: Table 1
M. tuberculosis H37Rv = assay: Anti-mycobacterium in vitro activity, H37Rv; assay type: cell-based, Mycobacterium tuberculosis; conditions: Sensitive strain
[7] = tested on: S. epidermidis ATCC 12228; assay: MIC determination, S. epidermidis ATCC 12228; assay type: cell-based, Staphylococcus epidermidis; conditions: Table 1
E. faecium CT-26 = assay: MIC determination, E. faecium CT-26; assay type: cell-based, Enterococcus faecium; conditions: Table 1
S. pneumoniae ATCC 6301 = assay: MIC determination, S. pneumoniae ATCC 6301; assay type: cell-based, Streptococcus pneumoniae; conditions: Table 1
[8] = tested on: M. catarrhalis ATCC 25238; assay: MIC determination, M. catarrhalis ATCC 25238; assay type: cell-based; conditions: Table 1

Structure (SMILES) | MIC Trichophyton mentagrophytes ATCC 10270 [1] [µg/mL] | MIC Microsporum canis ATCC 10214 [2] [µg/mL] | MIC Candida glabrata ATCC 15126 [3] [µg/mL] | MIC Aspergillus fumigatus ATCC 204305 [4] [µg/mL] | MIC Candida albicans ATCC 90028 [5] [µg/mL] | MIC Candida parapsilosis ATCC 22019 [6] [µg/mL] | MIC S. aureus ATCC 29213 (S. aureus ATCC 29213) [micrograms per ml] | MIC E. faecalis ATCC 29212 (E. faecalis ATCC 29212) [micrograms per ml] | M. tuberculosis MIC H37Rv (M. tuberculosis H37Rv) [µg/mL] | MIC S. epidermidis ATCC 12228 [7] [micrograms per ml] | MIC E. faecium CT-26 (E. faecium CT-26) [micrograms per ml] | MIC S. pneumoniae ATCC 6301 (S. pneumoniae ATCC 6301) [micrograms per ml] | MIC M. catarrhalis ATCC 25238 [8] [micrograms per ml]
C[C@@H]1[C@H](O)[C@@H](C)/C=C/C=C/C=C/C=C/C=C/C=C/C=C/[C@H](O[C@@H]2O[C@H](C)[C@@H](O)[C@H](N)[C@@H]2O)C[C@@H]2O[C@](O)(C[C@@H](O)C[C@@H](O)[C@H](O)CC[C@@H](O)C[C@@H](O)CC(=O)O[C@H]1C)C[C@H](O)[C@H]2C(=O)O [Amphotericin B, reference compound] | 1 (≈ 1.08 µM) | 0.5 (≈ 0.541 µM) | 0.75 (≈ 0.812 µM) | 1 (≈ 1.08 µM) | 1 (≈ 1.08 µM) | 0.75 (≈ 0.812 µM) |  |  |  |  |  |  | 
Oc1cccc2cccnc12 [Compound 10, 8-hydroxyquinoline] |  |  |  |  |  |  | 1 | 32 | 0.387 | 2 | 4 | 2 | 
Oc1cccc2cccnc12 [Compound 50, 8-hydroxyquinoline] |  |  |  |  |  |  | 2 | 4 | 0.387 | 2 | 4 | 2 | 
Oc1cccc2cccnc12 [Compound 51, 8-hydroxyquinoline] |  |  |  |  |  |  | 2 | 8 | 0.387 | 1 | 2 |  | 
Oc1cccc2cccnc12 [Compound 55, 8-hydroxyquinoline] |  |  |  |  |  |  | 2 | 4 | 0.775 | 1 | 2 | 2 | 4
Oc1cccc2cccnc12 [Compound 65, 8-hydroxyquinoline] |  |  |  |  |  |  | 2 | 16 | 0.775 | 2 | 4 | 2 | 4
Oc1cccc2cccnc12 [Compound 72, 8-hydroxyquinoline] |  |  |  |  |  |  | 4 | 64 | 0.775 | 2 | 4 | 4 | 
Oc1cccc2cccnc12 [Compound 75, 8-hydroxyquinoline] |  |  |  |  |  |  | 2 | 64 | 0.775 | 1 | 4 | 2 | 
Clc1ccc(B(OCc2cnc[nH]2)c2ccc(Cl)cc2)cc1 [Compound 126, Bis(4-Chlorophenyl)borinic acid 4-(hydroxymethyl)imidazole ester] | >32 | 16 (≈ 48.3 µM) | >32 | >32 | 1 (≈ 3.02 µM) | 32 (≈ 96.7 µM) |  |  |  |  |  |  | 
Cc1ccc(B(OCc2cn(Cc3ccccc3)cn2)c2ccc(C)c(Cl)c2)cc1Cl [Compound 127, Bis(3-Chloro-4-methylphenyl)borinic acid 1-benzyl-4-(hydroxymethyl)-imidazole ester] | 32 (≈ 71.2 µM) | 16 (≈ 35.6 µM) | >32 | >32 | 1 (≈ 2.23 µM) | 16 (≈ 35.6 µM) |  |  |  |  |  |  | 
Cc1ccc(B(OCc2nccn2C)c2ccc(C)c(Cl)c2)cc1Cl [Compound 128, Bis(3-Chloro-4-methylphenyl)borinic acid 1-methyl-2-(hydroxymethyl)-imidazole ester] | 16 (≈ 42.9 µM) | 12 (≈ 32.2 µM) | 32 (≈ 85.8 µM) | >32 | 1 (≈ 2.68 µM) | 16 (≈ 42.9 µM) |  |  |  |  |  |  | 
CCn1ccnc1COB(c1ccc(C)c(Cl)c1)c1ccc(C)c(Cl)c1 [Compound 129, Bis(3-Chloro-4-methylphenyl)borinic acid 1-ethyl-2-(hydroxymethyl)-imidazole ester] | 32 (≈ 82.7 µM) | 16 (≈ 41.3 µM) | >32 | >32 | 1 (≈ 2.58 µM) | 32 (≈ 82.7 µM) |  |  |  |  |  |  | 

Source: patent publication US7390806B2, “Antibiotics containing borinic acid complexes and methods of use” (Anacor Pharmaceuticals, Inc., priority 2002, dated 2008)
